Our source for the IC50 values is patent publication US20140179664A1, “Heterocyclyl Pyrimidine Analogues As JAK Inhibitors” (Cellzome Limited, priority 2011, published 2014).

pIC50: −log10 of the molar value.

The assay has as its system STAT5 phosphorylation downstream of JAK3 in human YT cells. The assay is described as follows: pSTAT5 cell assay (IL-2 stimulated YT cells, AlphaScreen). The class given is cell-based. As to conditions: IL-2 stimulation, read-out: Inhibition values (IC50) pSTAT5. The source says: STAT5 phosphorylation represents one of the proximal events in the signalling cascade downstream of JAK3 activation. Therefore STAT5 phosphorylation is an appropriate readout to assess the mechanistic effect of JAK3 inhibition. Stimulation of human YT cells, an NK-like cell line, with interleukin-2 (IL-2) results in phosphorylation of STAT5 at tyrosine residue 694 (Tyr694) that can be quantitatively measured by immunodetection with specific antibodies and an appropriate detection method, in this case AlphaScreen assay technology.
Human YT cells were grown in RPMI medium (Lonza, BE12-167) with 2 mM L-Glutamine (Invitrogen, 25030-024) and 10% heat-inactivated FBS (Invitrogen, 10106-169) and kept in a humidified incubator (37° C., 5% CO2). Cells were harvested by centrifugation, washed once with HBSS (Invitrogen, 14180-046), resuspended in HBSS at 1.5×10^6 cells/ml and 0.9×10^4 cells were seeded in 6 μl per well in a 96 well White plate (PerkinElmer, 6005569).
Test compounds were dissolved in DMSO and a 1:3 dilution series (9 steps) was prepared. To generate a dose response curve, 3 μl of fourfold concentrated compound in 4% DMSO/HBSS were added to each cell sample in the 96 well plate resulting in a final DMSO concentration of 1% DMSO. Cells were incubated for one hour in a humidified incubator (37° C., 5% CO2). To each well 3 μl of a fourfold concentrated IL-2 solution (Recombinant human IL-2, Peprotech 200-02; 120 nM solution in HBSS) was added and incubated for 30 minutes at room temperature. Cells were lysed by adding 3 μl of 5× lysis buffer (SureFire lysis buffer; Perkin Elmer, TGRS5S10K) and incubated for 10 minutes at room temperature with gentle shaking
For signal detection by AlphaScreen® technology the SureFire phospho-STAT5 (Tyr694/Tyr699) kit was used according to instructions provided by the manufacturer (Perkin Elmer, TGRS5S10K). Acceptor beads were added as recommended by the manufacturer (Reactivation buffer/Activation buffer/Acceptor beads at a ratio of 40:10:1) and incubated at room temperature for 1.5 hours with gentle shaking Then donor beads were added as recommended (Dilution buffer/Donor beads at a ratio of 20:1) and incubated at room temperature for 1.5 hours with gentle shaking Plates were read on an Envision instrument (Perkin Elmer) with the AlphaScreen protocol. Data were analysed in BioAssay using the nonlinear regression for a sigmoidal dose-response with a variable slope.
For orientation: Alpha assays give light when donor and acceptor beads are brought close together.
Take `O=C(Cn1cc(Nc2ncc(Cl)c(N[C@H](CO)c3ccccc3)n2)cn1)NC1CC1` [Compound 68]: the pIC50 (commonly −log10 of the IC50, conventionally taken in molar units) is 6.00 to 6.60.

Turning to `OC[C@@H](Nc1nc(Nc2cn[nH]c2)ncc1Cl)c1ccccc1` [Compound 75], the pIC50 was 6.00 to 6.60.

With `NC(=O)Cn1cc(Nc2ncc(Cl)c(N[C@H](CO)c3ccccc3F)n2)cn1` [Compound 78], the pIC50 is > 6.60.

Consider `CN(C)C(=O)Cn1cc(Nc2ncc(Cl)c(N[C@H](CO)c3ccccc3)n2)cn1` [Compound 30], for which the negative-log IC50 (pIC50) is 6.00 to 6.60.

As to `CNC(=O)Cn1cc(Nc2ncc(Cl)c(N[C@H](CO)c3ccccc3)n2)cn1` [Compound 23, (S)-2-(4-((5-chloro-4-((2-hydroxy-1-phenylethyl)amino)pyrimidin-2-yl)amino)-1H-pyrazol-1-yl)-N-methylacetamide], the pIC50 is 6.00 to 6.60.

Turning to `CC(C)NC(=O)Cn1cc(Nc2ncc(Cl)c(N[C@H](CO)c3ccccc3)n2)cn1` [Compound 67], the pIC50 was 6.00 to 6.60.
